Reference: US6569686B2, “Measurement of solubility-pH profiles” (Pion, Inc., priority 2000, dated 2003)
Converted amounts (≈) assume the structure as drawn. “And” between values parts separate entries of the source, which are not always exact repeats. Equal values may be shown once. Read-outs that look alike come from different tables or passages of the source. Marks after values point to notes of the source that are not given here. One block for each compound: values may come before it.

Key:
[1] = solubility-pH by aqueous dilution method, 96-well UV; assay type: physicochemical; conditions: kinetic from dmso stock
[2] = apparent pKa from fitted log S vs. pH curve; assay type: physicochemical; conditions: saturated solutions; for pKa shift Δ: pKa shift Δ = pKa^APP − pKa, heading: pKa shift Δ = pKa^APP − pKa; for pKa shift Δ / pKa shift Δ (apparent pKa minus true pKa): DMSO-containing saturated solutions (FIG. 8); for pKa shift Δ (apparent pKa minus true pKa): read-out: pKa shift Δ = pKa^APP − pKa
[3] = no DMSO, cited from earlier work; for Shake-Flask So: literature / private correspondence
[4] = true aqueous intrinsic solubility corrected from pKa shifts; assay type: physicochemical; conditions: for solubility: aqueous buffer, kinetic from dmso stock; for log So (corrected): log of μg/mL, horizontal asymptote of dashed curve in FIG. 8
[5] = literature (Roseman, Yalkowsky 1973); cited from earlier work
[6] = true pKa of the compounds (commercial pKa instruments / literature); assay type: physicochemical; conditions: pION unpublished data (footnote f)
Excerpt: For ionizable molecules in dilute solutions (where salt precipitation may be ignored), when the log (logarithm) of the measured solubility is plotted vs. pH, the curve is bilinear, with one segment having a zero slope and the other segment having a unit slope (positive for acids and negative for bases). […]. In a simple aqueous equilibrium system, the pH where the asymptotes of the horizontal and diagonal segments intersect is equal to the pKa of the solute. Under such ideal circumstances, it is possible to determine the pKa and the intrinsic aqueous solubility, So, of the compound from the crossing of the segments [Z. T. Chowhan, J. Pharm. Sci. 1978, 67, 1257-1260; W. H. Streng, H. G. H. Tan, Int. J. Pharm. 1985, 25, 135-145]. Such pKa values can be directly measured by commercially-available devices [C. D. Bevan, A. P. Hill, D. P. Reynolds, Patent Cooperation Treaty, WO 99/13328, Mar. 18, 1999; Sirius Analytical Instruments Ltd., UK].
(2) Also, a novel and simple computational method is developed to extract the aqueous intrinsic solubilities of drug molecules from data altered by DMSO-drug binding, or drug-drug aggregation reactions, or drug reactions with non-ionizable excipients, using the difference between the apparent pKa measured by the analytical device and the true pKa measured by analytical devices available commercially (e.g., from Sirius Analytical Instruments Ltd., Forest Row, E. Sussex, UK).
We discovered that if one determines the pKa^APP (in the presence of the DMSO effect) in the solubility assay, and subtracts from it the true pKa (determined using commercial instruments such as those from Sirius, UK), the difference, when subtracted from the logarithm of the apparent (DMSO-distorted) solubility, So^APP, yields the true aqueous solubility constant:
Since the pKas of the studied compounds are known (Table 2), it was possible to calculate the pKa shifts (Δ values in Table 1).

[7] = intrinsic solubility by pSOL Model 3 acid-base titrator; assay type: physicochemical; conditions: pION unpublished data (footnote f)
Experimental: Solubility determinations are illustrated with 15 sparingly-soluble generic, mostly-ionizable drugs (FIG. 1), covering about three orders of magnitude in solubilities, with the lowest value being about 0.1 μg/mL (terfenadine at high pH). The ionizable bases include amiloride, amitriptyline, chlorpromazine, miconazole, nortriptyline, phenazopyridine, propranolol, and terfenadine. […] Piroxicam was picked as an example of an ampholyte, and griseofulvin as an example of a non-ionizable molecule. The results of the solubility measurements were compared to literature equilibrium solubility-pH values from reliable sources, and to values determined by the pSOL Model 3 (pION) acid-base titrator [A. Avdeef, C. M. Berger, C. Brownell, Pharm . Res. 2000, 17, 85-89].

[8] = solubility-pH by cosolvent method (50% v/v 1-propanol), 96-well UV; assay type: physicochemical; conditions: universal buffer solution, aqueous buffer, kinetic from dmso stock, 0.26% v/v DMSO, read-out: So^APP (apparent intrinsic solubility)
Experimental: The “sample” track on the left side of FIG. 4a depicts a series of steps leading up to the taking of the sample spectrum in a water-cosolvent solution. A known quantity of sample (37) is added in a known volume of the universal buffer solution of known pH (38), the amount of said sample being sufficient to cause precipitation to occur in the formed saturated solution (39). After waiting a period of time to allow the saturated solution to reach a desired steady state, the solution is filtered (40) to remove the solid, and obtain a clear solution (41).
A volume Y of a water-miscible cosolvent 42 is added to a volume Z of solution 41 to produce a new solution 43, in which the compound is diluted by Z/(Y+Z), from its concentration in solution 41. The spectrum of solution 43 is then immediately taken by the UV spectrophotometer (44), to minimize evaporation of the water-cosolvent solution. The mathematical treatment of the spectral data yields the area-under-the-curve of the filtered cosolvent sample solution (43), AUCS^COS. […]
18. As soon as the solutions are mixed in step 17, the robot transfers 5 μL from the diluted sample stock solution (using the 20 μL tips) to the blank solutions whose spectra had just been read in step 16: 14→17 (Sd→U). […]
The solubility is calculated according to equation (8). The results for phenazopyridine stated in Table 2 were determined by the cosolvent method.

[9] = literature (footnotes a, b); cited from earlier work
[10] = true pKa; literature sources (footnotes a, b, h); cited from earlier work
[11] = pH 3
[12] = universal buffer solution, 0.5% v/v DMSO, 4 h shaking, read-out: So^APP (apparent intrinsic solubility)
[13] = read-out: corrected So (intrinsic solubility corrected for drug-DMSO/drug-aggregate effects)
[14] = pKa (I = 0.012 M, 50 vol % CH3CN)
[15] = saturated pH-buffered aqueous solution (universal buffer), read-out: corrected So (intrinsic solubility corrected for drug-DMSO/drug-aggregate effects)

Compound: O=S(=O)(O)CCN1CCOCC1 [MES monohydrate, 4-morpholine-ethanesulfonic acid]
pKa (physchem; pH 3, pKa (I = 0.020M)): 6.08
pKa (physchem; [14]): 6.24

Compound: prostaglandin F2α
pKa shift Δ = pKa^APP − pKa [5]: Δ < or = 0

Compound: O=C(O)c1ccc2ccccc2c1 [2-naphthoic acid]
solubility at 4 h [1, 12]: 33.3 µg/mL (≈ 193 µM)
pKa shift Δ (apparent pKa minus true pKa) [2]: > 0
Shake-Flask So [3]: 22.4^g μg/mL
pKa [6]: 4.16
solubility [4, 15]: 20.2 µg/mL

Compound: NCCS(=O)(=O)O [Taurine, 2-aminoethanesulfonic acid]
pKa (physchem; [14]): 8.95

Compound: O=C(O)Cc1ccccc1Nc1c(Cl)cccc1Cl [diclofenac]
solubility at 4 h [1, 12]: 22.6 µg/mL (≈ 76.3 µM)
Shake-Flask So [3]: 0.6^b μg/mL
pSOL So [9]: 0.8^b μg/mL
solubility [4, 15]: 3.8 µg/mL

Compound: OB(O)O [Boric Acid, boric acid]
pKa (physchem; pH 3, pKa (I = 0.020M)): 9.13

Compound: CNCCC=C1c2ccccc2CCc2ccccc21 [nortriptyline]
solubility at 4 h ([1]; universal buffer solution, in 0.5% v/v DMSO, read-out: solubility): > 98 µg/mL

Compound: COC1=CC(=O)C[C@@H](C)[C@]12Oc1c(Cl)c(OC)cc(OC)c1C2=O [griseofulvin]
pKa [10]: non-
solubility at 4 h [1, 12]: 37.6 µg/mL (≈ 107 µM)
Shake-Flask So [3]: 9^d μg/mL
solubility [4, 15]: 20.2 µg/mL

Compound: NS(=O)(=O)c1cc(C(=O)O)c(NCc2ccco2)cc1Cl [furosemide]
Shake-Flask So [3]: 12.0^b μg/mL
pSOL So [9]: 5.9^b μg/mL

Compound: O=S(=O)(O)CCN1CCN(CCO)CC1 [HEPES, 4-(2-hydroxyethyl)-1-piperazineethanesulfonic acid]
pKa (I = 0.020M) [11]: 7.48

Compound: CN(C)CCC=C1c2ccccc2CCc2ccccc21 [amitriptyline]
pKa [10]: 9.45^a
solubility at 4 h [1, 12]: 56.9 µg/mL (≈ 205 µM)
pKa shift Δ [2]: < 0
Shake-Flask So [3]: 2.0^a μg/mL
pSOL So [9]: 2.0^a μg/mL
solubility [4, 15]: 3 µg/mL

Compound: CN(C)CCCN1c2ccccc2Sc2ccc(Cl)cc21 [chlorpromazine]
solubility at 4 h [1, 12]: 19.4 µg/mL (≈ 60.8 µM)
solubility [4, 13]: 3.4 µg/mL
log So (corrected) [4]: 0.528

Compound: O=C(O)CO [Glycolic Acid, glycolic acid]
pKa (physchem; [14]): 4.56

Now from value to compound, other results behind:

solubility at 4 h [1, 12]: 10.5 µg/mL (≈ 31.7 µM)
pKa ([2]; 0.5% v/v DMSO, solid curve in FIG. 8, read-out: apparent pKa (pKa^APP)): 6.05
pKa shift Δ [2]: 0.98
solubility [4, 13]: 1.1 µg/mL
log So (corrected) [4]: 0.041
Compound: CN1C(C(=O)Nc2ccccn2)=C(O)c2ccccc2S1(=O)=O [piroxicam]
pKa deduced from literature solubility data ([3]; Jinno et al.): 5.63
Shake-Flask So [3]: 9.1^i μg/mL and 8-16^j μg/mL

solubility at 4 h ([1]; aqueous buffer, in 0.5% v/v DMSO, read-out: solubility): ~100 µg/mL (≈ 386 µM)
Compound: CC(C)NCC(O)COc1cccc2ccccc12 (stereo not drawn) [propranolol]

pSOL So [7]: 0.6^f μg/mL
solubility at 4 h [1, 12]: 4.6 µg/mL (≈ 16.1 µM)
pKa shift Δ (apparent pKa minus true pKa) [2]: > 0
pKa [6]: 3.01
solubility [4, 15]: 0.7 µg/mL
Compound: CCCN(CCC)S(=O)(=O)c1ccc(C(=O)O)cc1 [probenecid]

pSOL So [7]: 14.3^f μg/mL
pKa shift Δ [2]: ≥ 0
pKa ([2]; saturated solutions containing 0.26% v/v DMSO, read-out: apparent pKa (pKa^APP)): 5.83
pKa [6]: 5.15
solubility at 4 h [8]: 12.2 µg/mL (≈ 57.2 µM)
solubility ([4]; saturated pH-buffered aqueous solution (universal buffer), from So^APP in 0.26% v/v DMSO, cosolvent method, read-out: corrected So (intrinsic solubility corrected for drug-DMSO/drug-aggregate effects)): 12.2 µg/mL
Compound: Nc1ccc(/N=N/c2ccccc2)c(N)n1 [phenazopyridine]

pSOL So [7]: 0.1^f μg/mL
solubility at 4 h [1, 12]: 4.4 µg/mL (≈ 9.33 µM)
pKa shift Δ (apparent pKa minus true pKa) [2]: < 0
pKa [6]: 9.53
solubility ([4]; at high pH, read-out: solubility (lowest value)): ~0.1 µg/mL
solubility [4, 15]: 0.1 µg/mL
Compound: CC(C)(C)c1ccc(C(O)CCCN2CCC(C(O)(c3ccccc3)c3ccccc3)CC2)cc1 (stereo not drawn) [terfenadine]

pSOL So [7]: 0.7^f μg/mL
solubility at 4 h [1, 12]: 11.1 µg/mL (≈ 26.7 µM)
pKa shift Δ (apparent pKa minus true pKa) [2]: < 0
pKa [6]: 6.07
solubility [4, 15]: 1.6 µg/mL
Compound: Clc1ccc(COC(Cn2ccnc2)c2ccc(Cl)cc2Cl)c(Cl)c1 (stereo not drawn) [miconazole]

solubility at 4 h [1, 12]: 7.2 µg/mL (≈ 20.1 µM)
solubility [4, 15]: 4.1 µg/mL
Compound: COc1ccc2c(c1)c(CC(=O)O)c(C)n2C(=O)c1ccc(Cl)cc1 [indomethacin]
Shake-Flask So [3]: 2.0 µg/mL and 1 µg/mL
pSOL So [9]: 2.0^a μg/mL
